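1) Cells in 96-well plates. 2) Compound, 48 h, 5 concentrations. 3) Linear interpolation between surrounding doses. 4) Unreached endpoint = highest concentration. GI50 is the concentration that inhibits growth by half. TGI: concentration producing complete growth inhibition.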
Columns and labels:
Test in all cases: growth of human tumour cells (NCI), 48 h
[1] = test system: NCI/ADR-RES ovarian
[2] = test system: UACC-257 melanoma
[3] = test system: K-562 leukemia
[4] = test system: RPMI-8226 leukemia
[5] = test system: SK-MEL-5 melanoma
[6] = test system: SNB-19 CNS
[7] = test system: NCI-H460 lung
[8] = test system: LOX IMVI melanoma
[9] = test system: OVCAR-4 ovarian
[10] = test system: MALME-3M melanoma
[11] = test system: U251 CNS
[12] = test system: ACHN renal
[13] = test system: HS 578T breast
[14] = test system: SW-620 colon
[15] = test system: SF-539 CNS
[16] = test system: HOP-62 NSCLC
[17] = test system: SK-MEL-28 melanoma
[18] = test system: OVCAR-5 ovarian
[19] = test system: PC-3 prostate
[20] = test system: SK-OV-3 ovarian
[21] = test system: CCRF-CEM leukemia
[22] = test system: UO-31 renal
[23] = test system: NCI-H23 lung
[24] = test system: T-47D breast
[25] = test system: HOP-92 NSCLC
[26] = test system: BT-549 breast
[27] = test system: CAKI-1 renal
[28] = test system: HCT-15 colon
[29] = test system: MOLT-4 leukemia
[30] = test system: UACC-62 melanoma
[31] = test system: MCF7 breast
[32] = test system: A549 NSCLC
[33] = test system: HT29 colon
[34] = test system: COLO 205 colon
[35] = test system: TK-10 renal
[36] = test system: 786-0 renal
[37] = test system: SF-268 CNS
[38] = test system: RXF 393 renal
[39] = test system: OVCAR-8 ovarian
[40] = test system: IGROV1 ovarian
[41] = test system: MDA-MB-231 breast
[42] = test system: NCI-H522 lung
[43] = test system: A498 renal
[44] = test system: SK-MEL-2 melanoma
[45] = test system: NCI-H226 lung
[46] = test system: EKVX NSCLC
[47] = test system: HCC-2998 colon
[48] = test system: HCT-116 colon
[49] = test system: SNB-75 CNS
[50] = test system: KM12 colon
[51] = test system: HL-60(TB) leukemia
[52] = test system: SR leukemia
[53] = test system: M14 melanoma
[54] = test system: OVCAR-3 ovarian
[55] = test system: MDA-MB-435
[56] = test system: DU-145 prostate
[57] = test system: SF-295 CNS
[58] = test system: SN12C renal

`CN(Cc1ccccc1)c1ccc(CO)c(Cl)c1` was tested, and the GI50 [1] was 18.9 µM, the TGI [1] was 72.6 µM and the GI50 [2] was 0.432 µM. The TGI [2] was 1.69 µM, the GI50 [3] was 9.81 µM and the TGI [3] was greater than 100 µM. The GI50 [4] was 15.4 µM, the TGI [4] was greater than 96.2 µM and the GI50 [5] was 13.6 µM. The TGI [5] was 37.5 µM, the GI50 [6] was greater than 84.3 µM and the TGI [6] was greater than 100 µM. For the same compound, the GI50 [7] was 1.72 µM, the TGI [7] was 14.6 µM and the GI50 [8] was 45.8 µM. For the same compound, the TGI [8] was greater than 100 µM, the GI50 [9] was 2.54 µM and the TGI [9] was 43.6 µM. It also gave a GI50 [10] of 79 µM, a TGI [10] greater than 100 µM and a GI50 [11] of 4.55 µM. It also gave a TGI [11] greater than 90.8 µM, a GI50 [12] of 57.2 µM and a TGI [12] greater than 100 µM. The GI50 [13] was 35.2 µM, the TGI [13] was greater than 100 µM and the GI50 [14] was 7.98 µM. The TGI [14] was greater than 100 µM, the GI50 [15] was 61.3 µM and the TGI [15] was greater than 100 µM. The GI50 [16] was 6.41 µM, the TGI [16] was greater than 58.6 µM and the GI50 [17] was 50.5 µM. The TGI [17] was greater than 100 µM, the GI50 [18] was 0.595 µM and the TGI [18] was 3.08 µM. The GI50 [19] was 28.6 µM, the TGI [19] was greater than 100 µM and the GI50 [20] was 8.99 µM. The TGI [20] was 52 µM, the GI50 [21] was 32.5 µM and the TGI [21] was greater than 100 µM. The GI50 [22] was 15 µM, the TGI [22] was greater than 100 µM and the GI50 [23] was 17.9 µM. The TGI [23] was greater than 100 µM, the GI50 [24] was 0.857 µM and the TGI [24] was 5.45 µM. The GI50 [25] was 3.9 µM, the TGI [25] was 37.4 µM and the GI50 [26] was 21.1 µM. For the same compound, the TGI [26] was greater than 100 µM, the GI50 [27] was 2.93 µM and the TGI [27] was 50.9 µM. It also gave a GI50 [28] of 25.3 µM, a TGI [28] greater than 100 µM and a GI50 [29] of 26.4 µM. The TGI [29] was greater than 82.6 µM, the GI50 [30] was 0.384 µM and the TGI [30] was 3.93 µM. It also gave a GI50 [31] of 1.49 µM, a TGI [31] of 40.3 µM and a GI50 [32] of 4.74 µM. It also gave a TGI [32] of 32.5 µM, a GI50 [33] of 9.63 µM and a TGI [33] greater than 81.4 µM. The GI50 [34] was 7.19 µM, the TGI [34] was 22.5 µM and the GI50 [35] was 0.225 µM. The TGI [35] was 1.01 µM, the GI50 [36] was 15.7 µM and the TGI [36] was greater than 100 µM. The GI50 [37] was 47.2 µM, the TGI [37] was greater than 100 µM and the GI50 [38] was 13.1 µM. It also gave a TGI [38] greater than 60.9 µM, a GI50 [39] of 20.7 µM and a TGI [39] greater than 100 µM. For the same compound, the GI50 [40] was 0.467 µM, the TGI [40] was 3.01 µM and the GI50 [41] was 34.1 µM. For the same compound, the TGI [41] was greater than 100 µM, the GI50 [42] was 29 µM and the TGI [42] was greater than 100 µM. The GI50 [43] was 0.0652 µM, the TGI [43] was 0.212 µM and the GI50 [44] was 8.78 µM. For the same compound, the TGI [44] was 49.2 µM, the GI50 [45] was 0.142 µM and the TGI [45] was 0.324 µM. It also gave a GI50 [46] of 22 µM, a TGI [46] of 98.8 µM and a GI50 [47] of 13 µM. The TGI [47] was 51.9 µM, the GI50 [48] was 0.533 µM and the TGI [48] was 15.1 µM. It also gave a GI50 [49] of 22.4 µM, a TGI [49] greater than 80.7 µM and a GI50 [50] of 22.6 µM. For the same compound, the TGI [50] was greater than 86.5 µM, the GI50 [51] was 17.4 µM and the TGI [51] was 80 µM. The GI50 [52] was 19 µM, the TGI [52] was greater than 86.6 µM and the GI50 [53] was 29 µM. It also gave a TGI [53] greater than 100 µM, a GI50 [54] of 3.36 µM and a TGI [54] of 12.9 µM. For the same compound, the GI50 [55] was 17.6 µM, the TGI [55] was 59.2 µM and the GI50 [56] was 27.8 µM. The TGI [56] was greater than 100 µM, the GI50 [57] was 4.25 µM and the TGI [57] was greater than 76.8 µM. The GI50 [58] was 31.8 µM and the TGI [58] was greater than 100 µM.

— PubChem BioAssay (NCI)
